Ten compounds from article PMC10069231 (RSC Advances, 2023) can be followed below.

For series [1], the system named is HepG-2 cell line. Put plainly: MTT cytotoxicity assay, HepG-2. It is filed as cell-based, human. As to conditions: read-out: In vitro cytotoxic activity IC50 HepG-2. In general terms: Tetrazolium dyes change colour on reduction, which living cells bring about.
The test system of series [2] is Caco-2 cell line. Put plainly: MTT cytotoxicity assay, Caco-2. The settings on record: read-out: In vitro cytotoxic activity IC50 Caco-2.
The test system of series [3] is Caco-2 cell line. Put plainly: Flow cytometry cell cycle analysis. The class given is cell-based, human. As to conditions: Caco-2, treated at IC50 7.83 μM. For orientation: In flow cytometry, cells or beads pass a laser one at a time.
Series [4] relates to Caco-2 cells. The series can be described thus: Annexin-V/propidium iodide apoptosis assay. The class given is cell-based, human.
For series [5], the target named is EGFR^Wt (Homo sapiens, UniProt P00533). Put plainly: EGFR kinase assay kit. It is filed as biochemical. As to conditions: for IC50: Enzyme inhibitory activity IC50 EGFR^Wt, average of three independent tests; for inhibition at 10 µM: read-out: EGFR^Wt Inhibitory%.
Chain of EGFR^Wt (P00533 25-1210): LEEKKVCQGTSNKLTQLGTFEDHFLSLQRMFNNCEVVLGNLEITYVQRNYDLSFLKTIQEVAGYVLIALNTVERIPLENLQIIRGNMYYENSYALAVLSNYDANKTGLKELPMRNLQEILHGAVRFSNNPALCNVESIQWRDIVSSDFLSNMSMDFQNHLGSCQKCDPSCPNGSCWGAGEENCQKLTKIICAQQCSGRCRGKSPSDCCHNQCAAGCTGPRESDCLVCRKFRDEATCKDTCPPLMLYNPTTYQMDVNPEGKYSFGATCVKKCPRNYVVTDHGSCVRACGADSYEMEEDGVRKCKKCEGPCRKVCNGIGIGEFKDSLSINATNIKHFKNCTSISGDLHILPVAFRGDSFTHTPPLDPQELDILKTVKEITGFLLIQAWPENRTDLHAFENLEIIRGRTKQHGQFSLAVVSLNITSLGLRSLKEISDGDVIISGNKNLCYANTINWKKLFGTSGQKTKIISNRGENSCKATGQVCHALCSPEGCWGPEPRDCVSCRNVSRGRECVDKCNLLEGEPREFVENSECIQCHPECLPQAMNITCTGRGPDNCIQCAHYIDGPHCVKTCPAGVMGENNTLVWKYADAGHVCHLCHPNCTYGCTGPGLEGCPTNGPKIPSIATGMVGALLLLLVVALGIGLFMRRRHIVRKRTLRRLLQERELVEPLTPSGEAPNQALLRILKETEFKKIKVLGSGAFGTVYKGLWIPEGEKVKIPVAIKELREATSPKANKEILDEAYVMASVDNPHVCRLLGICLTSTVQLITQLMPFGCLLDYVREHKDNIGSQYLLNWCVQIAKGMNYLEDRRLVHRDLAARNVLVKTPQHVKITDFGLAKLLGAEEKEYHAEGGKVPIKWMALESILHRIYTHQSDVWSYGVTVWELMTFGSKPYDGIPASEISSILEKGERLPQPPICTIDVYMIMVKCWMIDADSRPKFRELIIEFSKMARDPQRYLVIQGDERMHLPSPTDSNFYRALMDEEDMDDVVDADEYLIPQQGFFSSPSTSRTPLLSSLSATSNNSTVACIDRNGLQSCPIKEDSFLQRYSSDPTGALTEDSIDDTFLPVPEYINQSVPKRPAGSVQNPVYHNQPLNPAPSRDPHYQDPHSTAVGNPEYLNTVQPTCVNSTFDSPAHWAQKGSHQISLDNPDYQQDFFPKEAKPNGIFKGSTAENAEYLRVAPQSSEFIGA
Series [6] has as its target VEGFR-2 (Homo sapiens, UniProt P35968). Put plainly: biochemical.

Several values for one entry are separate records, joined by “and”; a condition that tells them apart may be missing. Equal entries are not always repeated. Where two headings read alike, the source gives them in different places.

Chain of VEGFR-2 (P35968 20-1356): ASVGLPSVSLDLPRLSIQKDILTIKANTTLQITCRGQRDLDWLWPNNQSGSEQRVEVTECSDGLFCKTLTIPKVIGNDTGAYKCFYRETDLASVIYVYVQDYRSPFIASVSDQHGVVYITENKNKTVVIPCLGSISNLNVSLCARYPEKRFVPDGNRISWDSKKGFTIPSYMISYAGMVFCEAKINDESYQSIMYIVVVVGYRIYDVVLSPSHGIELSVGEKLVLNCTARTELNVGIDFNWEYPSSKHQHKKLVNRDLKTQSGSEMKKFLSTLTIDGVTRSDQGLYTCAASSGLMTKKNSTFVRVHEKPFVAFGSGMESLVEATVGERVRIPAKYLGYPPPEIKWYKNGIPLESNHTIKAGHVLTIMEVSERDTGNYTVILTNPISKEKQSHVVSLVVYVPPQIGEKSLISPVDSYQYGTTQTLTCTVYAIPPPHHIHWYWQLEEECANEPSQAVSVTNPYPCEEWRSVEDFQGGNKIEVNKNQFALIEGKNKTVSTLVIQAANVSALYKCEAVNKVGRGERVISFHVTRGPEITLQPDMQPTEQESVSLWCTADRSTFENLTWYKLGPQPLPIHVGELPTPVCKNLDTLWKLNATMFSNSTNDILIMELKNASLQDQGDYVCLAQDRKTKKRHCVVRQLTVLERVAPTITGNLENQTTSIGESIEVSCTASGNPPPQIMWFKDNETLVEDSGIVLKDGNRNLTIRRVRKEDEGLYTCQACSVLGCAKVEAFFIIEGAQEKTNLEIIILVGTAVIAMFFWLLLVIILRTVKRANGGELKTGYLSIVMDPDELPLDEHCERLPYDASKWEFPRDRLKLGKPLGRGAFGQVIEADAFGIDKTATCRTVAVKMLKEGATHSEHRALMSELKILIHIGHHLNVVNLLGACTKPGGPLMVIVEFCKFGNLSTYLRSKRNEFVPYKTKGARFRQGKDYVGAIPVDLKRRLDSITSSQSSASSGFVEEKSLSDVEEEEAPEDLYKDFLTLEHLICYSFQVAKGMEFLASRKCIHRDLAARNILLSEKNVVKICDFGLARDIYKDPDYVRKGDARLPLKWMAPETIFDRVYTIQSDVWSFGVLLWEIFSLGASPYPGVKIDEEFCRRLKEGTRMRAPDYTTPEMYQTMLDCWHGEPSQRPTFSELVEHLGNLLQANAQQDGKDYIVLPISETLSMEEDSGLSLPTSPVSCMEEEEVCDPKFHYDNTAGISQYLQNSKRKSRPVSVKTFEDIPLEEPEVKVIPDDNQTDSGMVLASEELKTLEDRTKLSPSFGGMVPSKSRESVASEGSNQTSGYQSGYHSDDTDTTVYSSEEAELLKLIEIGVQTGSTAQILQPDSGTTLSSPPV

As a reminder, the IC50 is the concentration that inhibits the measured activity by half. Consider `CCOC(=O)C1=C(N)N(c2ccc(C(=O)OCC)cc2)C(O)=C(C#N)C12C(=O)Nc1ccccc12` (stereo not shown) [Compound 8, Ethyl 2′-amino-5′-cyano-1′-(4-(ethoxycarbonyl)phenyl)-6′-hydroxy-2-oxo-1′H spiro[indoline-3,4′-pyridine]-3′-carboxylate], for which the IC50 in series [1] (Homo sapiens, HepG2, 24 h) is 8.42 ± 0.7 µM; in series [2] (Homo sapiens, Caco-2, 24 h), 13.6 ± 1.2 µM.

Consider `CCOC(=O)c1ccc(N2C(N)=C(C#N)C3(C(=O)Nc4ccccc43)C(C#N)=C2O)cc1` (stereo not shown) [Compound 7, Ethyl 4-(2′-amino-3′,5′-dicyano-6′-hydroxy-2-oxo-1′H-spiro[indoline-3,4′-pyridin]-1′-yl)benzoate], for which the IC50 in series [1] (Homo sapiens, HepG2, 24 h) was 8.9 ± 0.6 µM; in series [5], < 0.25 µM and 0.124 µM; in series [6] (Enzyme inhibitory activity IC50 VEGFR-2, average of three independent tests), 0.221 ± 0.009 µM; in series [2] (Homo sapiens, Caco-2, 24 h) it was 7.83 ± 0.5 µM. Besides, the “Cell cycle distribution, S phase” value in series [3] (untreated 31.18%) amounted to 42.07%. Besides, the “Cell cycle distribution, G0-G1” value in series [3] (untreated 54.69%) was 51.08%. Moreover, the “Cell cycle distribution, G2/M” value in series [3] (untreated […]%) was 6.85%. Besides, the “Early apoptosis, increase compared to the control” value in series [4] (Caco-2, at IC50) was 67.60 folds. Also, the “Late apoptosis, increase compared to the control” value in series [4] (Caco-2, at IC50) amounted to 100.11 folds. The “Apoptosis Late” value in series [4] (Caco-2, at IC50 for 24 h, control 0.17) worked out at 17.02%. For the same compound, in series [4] (Caco-2, at IC50 for 24 h, control 0.33), the “Apoptosis Early” value amounted to 22.31%. Moreover, the Necrosis in series [4] (Caco-2, at IC50 for 24 h, control 1.42) was found to be 3.02%. Moreover, in series [4] (Caco-2, at IC50 for 24 h, control 1.92), the “Apoptosis Total” value is 42.35%. In addition, the inhibition at 10 µM stood at 88.4% in series [5] and 87% in series [6] (read-out: VEGFR-2 Inhibitory%).

For `COc1cccc2c1C(=O)c1c(O)c3c(c(O)c1C2=O)C[C@@](O)(C(=O)CO)C[C@@H]3O[C@H]1C[C@H](N)[C@H](O)[C@H](C)O1` [Doxorubicin, reference compound], the IC50 in series [1] (Homo sapiens, HepG2, 24 h) amounted to 4.5 ± 0.2 µM. In series [5], the IC50 was found to be 0.349 ± 0.016 µM and the inhibition at 10 µM came to 77.6%.

As for `CCOC(=O)c1ccc(-n2c(C)cc(/C=C/c3ccc(OC)cc3)c(C#N)c2=O)cc1` [Compound 3a, Ethyl (E)-4-(3-cyano-4-(4-methoxystyryl)-6-methyl-2-oxopyridin-1(2H)-yl)benzoate], the IC50 in series [1] (Homo sapiens, HepG2, 24 h) was 78.2 ± 3.8 µM; in series [2] (Homo sapiens, Caco-2, 24 h) it was 84.4 ± 4 µM.

On to `CCOC(=O)c1ccc(-n2c(-c3ccc(C)cc3)cc(-c3ccc(O)cc3)c(C#N)c2=O)cc1` [Compound 11, Ethyl 4-(3-cyano-4-(4-hydroxyphenyl)-2-oxo-6-(p-tolyl)pyridin-1(2H)-yl)benzoate], for which the IC50 was determined as 14.9 ± 1.2 µM in series [1] (Homo sapiens, HepG2, 24 h) and 19.2 ± 1.4 µM in series [2] (Homo sapiens, Caco-2, 24 h).

Turning to `CCOC(=O)c1ccc(-n2c(C)cc(C)c(C#N)c2=O)cc1` [Compound 2, ethyl 4-(3-cyano-4,6-dimethyl-2-oxopyridin-1(2H)-yl)benzoate], the IC50 came out at 51.6 ± 2.9 µM in series [1] (Homo sapiens, HepG2, 24 h) and 41.5 ± 2.5 µM in series [2] (Homo sapiens, Caco-2, 24 h).

Take `CCOC(=O)c1ccc(NC(=O)C2=C3C(=Nc4ccccc43)NC2=O)cc1` [Compound 6, ethyl 4-(2-oxo-1,2-dihydropyrrolo[2,3-b]indole-3-carboxamido)benzoate]: the IC50 in series [1] (Homo sapiens, HepG2, 24 h) was 39.3 ± 2.5 µM; in series [2] (Homo sapiens, Caco-2, 24 h), 45.4 ± 2.7 µM.

Take `CCOC(=O)c1ccc(-n2c(C)cc(/C=C/c3ccc(OCC)cc3)c(C#N)c2=O)cc1` [Compound 3b, Ethyl (E)-4-(3-cyano-4-(4-ethoxystyryl)-6-methyl-2-oxopyridin-1(2H)-yl)benzoate]: the IC50 in series [1] (Homo sapiens, HepG2, 24 h) was 63.1 ± 3.4 µM; in series [2] (Homo sapiens, Caco-2, 24 h), 75.7 ± 3.5 µM.

On to “ethyl 4-(3′,5′-dicyano-2′,6′-dihydroxy-1,3-dioxo-1,3-dihydro-1′H-spiro[indene-2,4′-pyridin]-1′-yl)benzoate [Compound 5]”, for which the IC50 came out at 10.6 ± 0.8 µM in series [1] (MTT, 24 h incubation, HepG-2) and 9.78 ± 0.7 µM in series [2] (MTT, 24 h incubation, Caco-2).

Take `CCOC(=O)c1ccc(-n2c(N)c(C#N)c(CC#N)c(C#N)c2=O)cc1` [Compound 10, ethyl 4-(6-amino-3,5-dicyano-4-(cyanomethyl)-2-oxopyridin-1(2H)-yl)benzoate]: the IC50 is 25.2 ± 1.9 µM in series [1] (Homo sapiens, HepG2, 24 h) and 37.8 ± 2.3 µM in series [2] (Homo sapiens, Caco-2, 24 h).
